# Like-named read-outs stand apart in the source and are kept apart here.
# What was measured:
# Assay type in all cases: physicochemical
# [1] = 1 week slurry experiments in water, IPA, EtOAc, MeCN, EtOH and dioxane, form by XRPD (Table 34); conditions: for form after slurry in non-aqueous solvents: solvents other than water; for form after slurry in non-aqueous solvents / form isolated after slurry in water: room temperature, one week; for Form (1 wk): RT, resulting form by XRPD
# Method: Each vial was charged with approximately 25-30 mg of API and 1 mL of the corresponding solvent, followed by stirring at room temperature for one week. […] The obtained solids were isolated by filtration, dried under vacuum at room temperature and analyzed by XRPD.
# [2] = Karl Fischer analysis (KF), water content; conditions: for water content by KF: theoretical for a monohydrate 3.2%
# Method: Water content was determined by adding solid sample to the instrument with HYDRANAL-Coulomat AD. Micrograms of water were determined by coulometric titration.
# [3] = Moisture-sorption analysis (adsorption/desorption, then drying 1 h at 80° C. and XRPD) (Table 40); conditions: for XRPD pattern after drying: dried for one hour at 80° C.
# Method: Moisture-sorption experiments were carried out on three forms by first drying the sample at 0% RH and 25° C. until an equilibrium weight was reached or for a maximum of four hours. The sample was then subjected to an isothermal (25° C.) adsorption scan from 10 to 90% RH in steps of 10%. The sample was allowed to equilibrate to an asymptotic weight at each point for a maximum of four hours. Following adsorption, a desorption scan from […] to 0% RH (at 25° C.) was run in steps of −10%, again allowing a maximum of four hours for equilibration to an asymptotic weight. The sample was then dried for one hour at 80° C. and the resulting solid analyzed by XRPD.
# [4] = Humidity chamber study at 0% and 95% RH, one week, XRPD and KF (Table 38); conditions: ambient temperature
# Method: The 0% RH chamber was prepared with drierite and the 95% RH chamber was made with a saturated solution of Na2HPO4.12H2O in DI water. The chambers were equilibrated for >1 week prior to introducing samples. Samples were placed in Teflon-lined caps for scintillation vials and allowed to equilibrate for one week then analyzed by XRPD and KF to determine form and water content.
# FIG. 60 summarizes the conversion of the forms of Compound 1 observed from slurry and humidity chamber studies.
# [5] = Drying study of Form A under vacuum at 40-85° C., XRPD and OVI (Table 39)
# Method: Approximately 100 mg of sample was weighed into an individual 20-mL headspace vial and 5 mL of DMSO added. The vial was then sealed and gentle shaking/vortexing was used to ensure sample was entirely dissolved. Blank samples were prepared by transferring 5.0 mL of DMSO into a 20-mL headspace vial and then sealed. Standards were prepared using stock solutions in DMSO. Compound 1 (4.08 g, Form A) was dried under vacuum at 40° C. overnight. A small sample (˜200 mg) was taken for XRPD and OVI tests. The rest of the material was further dried under vacuum at 55° C. overnight. A second sample (˜200 mg) was taken for XRPD and OVI tests. The oven temperature was increased to 70° C. and the material was further dried under vacuum at 70° C. overnight. A third sample (˜200 mg) was taken for XRPD and OVI tests. The oven temperature was then increased to 85° C. and the material was further dried under vacuum over weekend. Analysis by XRPD and OVI was completed as shown in Table 39 along with experimental details.
# [6] = Solubility study of Form A in DI water and 20 mM phosphate buffer (pH 3.2) (Table 37); conditions: for pH (final, 1 week): supernatant after 1 week slurry; for solubility at 1 day: read-out: Solubility mg/mL (1 day); for solubility at 1 week: read-out: Solubility mg/mL (1 week)
# Method: The solubility measurement of Compound 1 Form A was performed in DI water (Milli-Q) and in 20 mM phosphate buffer (pH 3.2), see Table 37. Each vial was charged with 50-55 mg of Compound 1 and 1 mL of the corresponding solvent.
# Both slurries were stirred at room temperature for approximately 19 hours. An aliquot (0.2 mL) was taken from each sample for the solubility determination and XRPD test. […] Both slurries were allowed to stir for an additional 6 days at room temperature. The pH of the supernatant liquid and solubility were determined following the 1 week slurry.
# [7] = Solvent screen: solubility of Compound 1 in various solvents (Table 16)
# Method: Compound 1 as prepared by the method described in Example I may be used as the starting material for preparation of other polymorphic forms. The methods for testing the solubility of Compound 1 are described in Example 3, and the solubilities of Compound 1 in various solvents are summarized in Table 16. […] A solubility study of Compound 1 in various solvents was executed to select appropriate solvents for the further crystallizations. The material was placed in vials and the solvent was added in 250 μL portions. Solvents were picked based on differences in polarity and functionality and on their classification according to the International Conference on Harmonization (ICH), with preferences given to class II and class III solvents. After each addition of solvent, the vials were visually inspected for residual solids, and further heating to 55° C. to ensure dissolution.
# [8] = MeCN/water slurry experiments of Forms A and C at ambient temperature (Table 35); conditions: MeCN/water at different ratios
# Method: Slurry experiments of Compound 1, Forms A and C, were conducted in mixtures of MeCN and water. Each vial was charged with approximately 40 mg of Compound 1 (pure Form A, pure Form C, or 50:50 mixtures) and 2 mL of MeCN/water mixture in a 1:9, 1:1, and 9:1 ratio. […] All samples were stirred at room temperature for approximately 24 hours. An aliquot (1 mL) of the suspension was taken from the slurries (samples #1, 3, 4, 6, 7 and 9) for determination of form by XRPD. All aliquots were filtered and dried in vacuo at 30 mm Hg and ambient temperature. All samples were stirred at ambient temperature for an additional six days, filtered, dried, and again the solid form and filterability were determined.
# [9] = 20 mM phosphate buffer slurry, room temperature
# [10] = DI water slurry, room temperature
compound,measurement,setting,value
CCS(=O)(=O)c1cccc(-c2cc(C(=O)NC3CCN(C)CC3)c(C)c3[nH]c4ncc(C)cc4c23)c1 [Form L],form after slurry in non-aqueous solvents,[1],to the anhydrate Form C
same,form isolated after slurry in water,[1],convert to the monohydrate Form A
same,water content by KF,[2],2.9%
same,hygroscopicity (moisture sorption curve),[3]; 25° C.,moderately hygroscopic
same,hysteresis upon desorption,[3]; 25° C.,not observed
same,maximum water uptake,"[3]; at 90% RH, 25° C.",3.9%
same,XRPD pattern after drying,[3],same pattern before and after drying
CCS(=O)(=O)c1cccc(-c2cc(C(=O)NC3CCN(C)CC3)c(C)c3[nH]c4ncc(C)cc4c23)c1 [Form A],water content by KF after heating,"[2]; another sample, after heating",3.0%
same,water content by KF before heating,"[2]; another sample, before heating",3.1%
same,water content by KF,[2],3.7%
same,stability of the hydrate over relative humidity (moisture sorption curve),[3]; 25° C.,stable from 5 to 90% RH
same,maximum moisture uptake,"[3]; at 90% RH, 25° C.",4.2 wt %
same,XRPD pattern after drying,[3],consistent with Form A
same,change in form upon humidity exposure,[4]; 0 and 95% RH for one week,did not show a change in form
same,Residual Amt of MeCN by OVI (ppm),"[5]; dried under vacuum at 40° C., time at temperature 16",1353 ppm
same,Residual Amt of MeCN by OVI (ppm),"[5]; dried under vacuum at 55° C., time at temperature 24 (total 40)",1303 ppm
same,Residual Amt of MeCN by OVI (ppm),"[5]; dried under vacuum at 70° C., time at temperature 24 (total 64)",1113 ppm
same,Residual Amt of MeCN by OVI (ppm),"[5]; dried under vacuum at 85° C., time at temperature 72 (total 136)",670 ppm
same,XRPD (1 week),[6]; [9],Form A
same,XRPD (1 day),[6]; [9],Form A
same,"pH (final, 1 week)",[6]; 20 mM phosphate buffer,3.3
same,solubility,"[6]; DI water and 20 mM phosphate buffer (pH 3.2), thermodynamic from solid, DI water and phosphate buffer slurries, after equilibration overnight and 1 week, room temperature",3000 to 4000 µg/mL
same,XRPD (1 week),[6]; [10],Form A
same,XRPD (1 day),[6]; [10],Form A
same,"pH (final, 1 week)",[6]; DI water,5.0
same,solubility at 1 day,"[6]; aqueous buffer, thermodynamic from solid, 20 mM phosphate buffer, initial pH 3.2, room temperature",3.3 mg/mL
same,solubility at 1 week,"[6]; pH 3.2, aqueous buffer, thermodynamic from solid, 20 mM phosphate buffer, room temperature",4.1 mg/mL
same,solubility at 1 week,"[6]; pH 8.1, thermodynamic from solid, DI water, room temperature",4.3 mg/mL
same,solubility at 1 day,"[6]; thermodynamic from solid, DI water, initial pH 8.1, room temperature",3.1 mg/mL
"CCS(=O)(=O)c1cccc(-c2cc(C(=O)NC3CCN(C)CC3)c(C)c3[nH]c4ncc(C)cc4c23)c1.Cl [Compound 1, 5-(3-(ethylsulfonyl)phenyl)-3,8-dimethyl-N-(1-methylpiperidin-4-yl)-9H-pyrido[2,3-b]indole-7-carboxamide hydrochloride]",solubility,"[7]; 55 °C, thermodynamic from solid, solvent water, Temp 55, Soluble No, read-out: Conc.",≤ 600 µg/mL
same,solubility,"[7]; in acetone, MeCN, MTBe, EtOAc, IPAc, IPA, THF, 2-Me-THF, DCM, MEK, cyclohexane, heptane and water",Poor solubility
same,solubility,"[7]; in dioxane, MeOH, DMF, DMA, NMP, AcOH and EtOH",Good solubility
same,Soluble,"[7]; solvent 2-Me-THF, 0.4 mg/mL, Temp 55",No
same,Conc.,"[7]; solvent 2-Me-THF, Temp 55, Soluble No",0.4 mg/mL
same,Soluble,"[7]; solvent AcOH, >9.2 mg/mL, Temp RT",Yes
same,Conc.,"[7]; solvent AcOH, Temp RT, Soluble Yes",>9.2 mg/mL
same,Soluble,"[7]; solvent Acetone, 0.3 mg/mL, Temp 55",No
same,Conc.,"[7]; solvent Acetone, Temp 55, Soluble No",0.3 mg/mL
same,Soluble,"[7]; solvent Chloroform, >8.4 mg/mL, Temp RT",Yes
same,Conc.,"[7]; solvent Chloroform, Temp RT, Soluble Yes",>8.4 mg/mL
same,Soluble,"[7]; solvent DCM, 0.8 mg/mL, Temp RT",No
same,Conc.,"[7]; solvent DCM, Temp RT, Soluble No",0.8 mg/mL
same,Soluble,"[7]; solvent DMA, >9.2 mg/mL, Temp RT",Yes
same,Conc.,"[7]; solvent DMA, Temp RT, Soluble Yes",>9.2 mg/mL
same,Soluble,"[7]; solvent DMF, >10.4 mg/mL, Temp RT",Yes
same,Conc.,"[7]; solvent DMF, Temp RT, Soluble Yes",>10.4 mg/mL
same,Soluble,"[7]; solvent Dioxane, 0.7 mg/mL, Temp 55",Yes
same,Conc.,"[7]; solvent Dioxane, Temp 55, Soluble Yes",0.7 mg/mL
same,Soluble,"[7]; solvent EtOAc, 0.4 mg/mL, Temp 55",No
same,Conc.,"[7]; solvent EtOAc, Temp 55, Soluble No",0.4 mg/mL
same,Soluble,"[7]; solvent EtOH, 1.2 mg/mL, Temp 55",Yes
same,Conc.,"[7]; solvent EtOH, Temp 55, Soluble Yes",1.2 mg/mL
same,Soluble,"[7]; solvent Heptane, 0.4 mg/mL, Temp 55",No
same,Conc.,"[7]; solvent Heptane, Temp 55, Soluble No",0.4 mg/mL
same,Soluble,"[7]; solvent IPA, 0.5 mg/mL, Temp 55",No
same,Conc.,"[7]; solvent IPA, Temp 55, Soluble No",0.5 mg/mL
same,Soluble,"[7]; solvent IPAC, 0.5 mg/mL, Temp 55",No
same,Conc.,"[7]; solvent IPAC, Temp 55, Soluble No",0.5 mg/mL
same,Soluble,"[7]; solvent MEK, 0.6 mg/mL, Temp 55",No
same,Conc.,"[7]; solvent MEK, Temp 55, Soluble No",0.6 mg/mL
same,Soluble,"[7]; solvent MTBE, 0.3 mg/mL, Temp 55",No
same,Conc.,"[7]; solvent MTBE, Temp 55, Soluble No",0.3 mg/mL
same,Soluble,"[7]; solvent MeCN, 0.5 mg/mL, Temp 55",No
same,Conc.,"[7]; solvent MeCN, Temp 55, Soluble No",0.5 mg/mL
same,Soluble,"[7]; solvent MeOH, >10.0 mg/mL, Temp RT",Yes
same,Conc.,"[7]; solvent MeOH, Temp RT, Soluble Yes",>10.0 mg/mL
same,Soluble,"[7]; solvent NMP, >10.4 mg/mL, Temp RT",Yes
same,Conc.,"[7]; solvent NMP, Temp RT, Soluble Yes",>10.4 mg/mL
same,Soluble,"[7]; solvent THF, 0.4 mg/mL, Temp 55",No
same,Conc.,"[7]; solvent THF, Temp 55, Soluble No",0.4 mg/mL
same,Soluble,"[7]; solvent Toluene, 0.4 mg/mL, Temp 55",No
same,Conc.,"[7]; solvent Toluene, Temp 55, Soluble No",0.4 mg/mL
same,Soluble,"[7]; solvent c-Hexane, 0.5 mg/mL, Temp 55",No
same,Conc.,"[7]; solvent c-Hexane, Temp 55, Soluble No",0.5 mg/mL
same,Soluble,"[7]; solvent water, 0.6 mg/mL, Temp 55",No
CCS(=O)(=O)c1cccc(-c2cc(C(=O)NC3CCN(C)CC3)c(C)c3[nH]c4ncc(C)cc4c23)c1 [Form N],Form (1 wk),[1]; 1 week slurry in Dioxane (1.0 mL),C + P
same,Form (1 wk),[1]; 1 week slurry in EtOAc (1.0 mL),C + P
same,Form (1 wk),[1]; 1 week slurry in IPA (1.0 mL),C + P
same,form isolated after slurry in water,[1],Form A
CCS(=O)(=O)c1cccc(-c2cc(C(=O)NC3CCN(C)CC3)c(C)c3[nH]c4ncc(C)cc4c23)c1 [Form C],form after slurry in non-aqueous solvents,[1],stable anhydrate form in non-aqueous environments
same,form isolated after slurry in water,[1],converted to the monohydrate Form A
same,water content by KF,[2],1.4%
same,hygroscopicity (moisture sorption curve),[3]; 25° C.,slightly hygroscopic
same,hysteresis upon desorption,[3]; 25° C.,not observed
same,maximum water uptake,"[3]; at 90% RH, 25° C.",1.9%
same,XRPD pattern after drying,[3],consistent to the starting form
same,form after acetonitrile/water slurries,[8],converted to the monohydrate Form A
same,form after humidity exposure,[4]; 95% RH for one week,converted to Form A
